Measurements as given in patent US8741576B2, “Heteroclitic analogs and related methods” (Epimunne Inc., priority 1999, dated 2014).
Ends that are not written are not given here.

How the values were obtained:
[1] = system: human PBMC CTL; 624mel tumor cell line; experiment: Primary in vitro CTL induction from human PBMC with MAGE3.112 or analogs; conditions: IFNγ against .221A2.1 cells with or without peptide
[2] = target: HLA-B7 (B*0702) (Homo sapiens, UniProt P01889); experiment: HLA-B7 (B*0702) peptide binding, competition with radiolabeled SS 5-13a (L7→Y) peptide; conditions: purified HLA-B7

IC50 [2] [nM]	Compound	peptide-specific CTL responses in human PBMC cultures stimulated with the peptide [1]
	CC[C@H](C)[C@H](NC(=O)[C@H](CCC(=O)O)NC(=O)[C@H](C)NC(=O)[C@@H](NC(=O)[C@@H](N)CCCCN)C(C)C)C(=O)N[C@H](C(=O)N[C@@H](Cc1c[nH]cn1)C(=O)N[C@@H](Cc1ccccc1)C(=O)N[C@@H](CC(C)C)C(=O)O)C(C)C [MAGE3.112 I5]	Peptide-specific CTL responses were detected
	CC(C)C[C@H](NC(=O)[C@H](Cc1ccccc1)NC(=O)[C@H](Cc1c[nH]c2ccccc12)NC(=O)[C@@H](NC(=O)[C@H](CC(C)C)NC(=O)[C@H](CCC(=O)O)NC(=O)[C@H](C)NC(=O)[C@@H](NC(=O)[C@@H](N)CCCCN)C(C)C)C(C)C)C(=O)O [MAGE3.112 W7]	Peptide-specific CTL responses were detected
186	VPISHLEIL [MAGE2.170E7]	
105	VPISHLGIL [MAGE2.170G7]	
75	VPISHLHIL [MAGE2.170H7]	
69	VPISHLMIL [MAGE2.170M7]	
